What all share (type): in vivo, Beagle dogs
One series concerns Blood FFA. Description: Blood FFA levels in dogs after oral administration (Table 8). The following applies: relative ratio against averaged pre-dosing level (100), oral once daily, atorvastatin 2 mg/kg, AA 500 mg/kg, mean of 5 animals.
The test system of series [1] is total cholesterol in the blood. Put plainly: Blood total cholesterol levels in dogs after oral administration for 11 days (CEH-COD-POD method). The following applies: relative ratio against averaged pre-dosing level (100), oral once daily, mean of 5 animals. An excerpt: (§1) Atorvastatin was synthesized at Chemtech Labo.
(§2) Beagle dogs aged 5 months were purchased from Covance Research Products Inc. and used after 1 month of quarantine and acclimatisation breeding.
(§3) The required amounts of atorvastatin or each component of the combination drug calculated from the body weight of each dog were weighed and filled in a gelatin capsule (½ ounce) purchased from TORPAC Inc. Capsules filled with atorvastatin were stocked in a refrigerator and those filled with combination drugs stocked at room temperature until use.
(§4) Atorvastatin or combination drug capsules were forcibly orally administered to each of the test animals once daily between 9:00 and 12:30. Animals were fasted for 2 or 3 hr prior to administration of the capsules.
(§5) The administration period was 11 successive days.
(§6) Blood (10 mL) was collected from the superficial radial vein 2 or 1 weeks prior to administration and 4, 8, and 12 days after administration was started. Animals were fasted for approximately 18 hr prior to blood collection. Collected blood was placed in a test tube, left at room temperature for 0.5-1 hr, then centrifuged (3,000 rpm for 10 min). The obtained serum was used for assays of blood levels of total cholesterol, lipid peroxides and triglycerides according to CEH-COD-POD (Cholesterol ester hydrolase-Cholesteroloxidase-Peroxidase) methods, Yagi's methods and GK-GPO-POD (Glycerokinase-Glycerolphosphateoxidase-Peroxidase) methods respectively. (For assay method, see: Kanai's Manual of Clinical Laboratory Medicine; 31st Edition (September 1998), Kanehara & Co., Ltd.).
(§7) All these levels were determined using a fluorometer (Hitachi, Ltd., F3000), a full automatic analyzer (Monarch, Instrumentation Laboratory), and an automatic analyzer (7170, Hitachi, Ltd.).
(§8) All these values were converted to their relative ratios against their averaged pre-dosing levels (100) determined 2 and 1 weeks prior to drug administration. The averaged value in each group was obtained from 5 animals per group.

For another series, the system named is GOT. Description: GOT levels in dogs after oral administration (Table 9). The following applies: relative ratio against averaged pre-dosing level (100), oral once daily, atorvastatin 2 mg/kg, pantethine 300 mg/kg, mean of 5 animals.
From the text: Atorvastatin was synthesized at Chemtech Labo. Inc., and riboflavin butyrate, d-α-tocopherol acetate, ascorbic acid, pantethine and taurine were purchased from Mitsubishi-Tokyo Pharmaceutical Inc., Eisai Co., Ltd., NIPPON ROCHE K.K., Nacalai Tesque, Inc. and Dai-ich Pharmaceutical Co., Ltd., respectively.
as §2, §3, §4, §5
Blood (10 mL) was collected from the superficial radial vein 2 or 1 weeks prior to administration and 4, 8, and 12 days after administration was started. Animals were fasted for approximately 18 hr prior to blood collection. Collected blood was placed in a test tube, left at room temperature for 0.5-1 hr, then centrifuged (3,000 rpm for 10 min). […]
as §7
Total cholesterol levels and so forth in the blood collected from dogs treated with either atorvastatin alone or a combination drug consisting of atorvastatin plus one of riboflavin butyrate, d-α-tocopherol acetate, ascorbic acid, pantethine and taurine were determined. All these values were converted to their relative ratios against their averaged pre-dosing levels (100) determined 2 and 1 weeks prior to drug administration. […]

The test system of series [2] is lipid peroxides in the blood. Description: Blood lipid peroxide levels in dogs after oral administration for 11 days (Yagi's method). The following applies: relative ratio against averaged pre-dosing level (100), oral once daily, atorvastatin 2 mg/kg, mean of 5 animals.
From the text: as §1, §2, §3, §4, §5
as §6, with “respectively.” for “respectively. (For assay method, see: Kanai's Manual of Clinical Laboratory Medicine; 31st Edition (September 1998), Kanehara & Co., Ltd.).”
as §8

The test system of series [3] is triglycerides in the blood. Put plainly: Blood triglyceride levels in dogs after oral administration for 11 days (GK-GPO-POD method). The following applies: relative ratio against averaged pre-dosing level (100), oral once daily, statin 2 mg/kg, taurine 1000 mg/kg, mean of 5 animals.
From the text: as §1, §2, §3, §4, §5, §6, §7, §8

Where [4] appears, read: atorvastatin 2 mg/kg, RFVb 200 mg/kg.
Setting [5] is: atorvastatin 2 mg/kg, Tocoph 300 mg/kg.
The mark [6] stands for this setting: statin 2 mg/kg, taurine 1000 mg/kg.

The structures appear in SMILES notation.

As for `CC(C)c1c(C(=O)Nc2ccccc2)c(-c2ccccc2)c(-c2ccc(F)cc2)n1CC[C@@H](O)C[C@@H](O)CC(=O)O` (relative stereo) [Atorvastatin alone, [R-(R*,R*)]-2-(4-fluorophenyl)-β,δ-dihydroxy-5-(1-methylethyl)-3-phenyl-4-[phenylamino]carbonyl]-1H-pyrrole-1-heptanoic acid], in the series on Blood FFA, the “Blood FFA Levels after administration, 4 days” value stood at 102.9; the “Blood FFA Levels after administration, 8 days” value was 95.5; the “Blood FFA Levels after administration, 12 days” value amounted to 90.9. In series [1] (setting [4]), the “Blood Total Cholesterol Levels after administration, 4 days” value (“Blood Total Cholesterol Levels … 4 days” for short) is reported as 102.9; the “Blood Total Cholesterol Levels after administration, 8 days” value (from here on “Blood Total Cholesterol Levels … 8 days”) was 95.5; the “Blood Total Cholesterol Levels after administration, 12 days” value (from here on “Blood Total Cholesterol Levels … 12 days”) amounted to 90.9. Besides, in series [1] (setting [5]), the “Blood Total Cholesterol Levels … 4 days” value was determined as 102.9; the “Blood Total Cholesterol Levels … 8 days” value came to 95.5; the “Blood Total Cholesterol Levels … 12 days” value came to 90.9. In the series on GOT (4 days), the “GOT Levels after administration, 4 days” value worked out at 102.9. For the same molecule, the “GOT Levels after administration, 8 days” value in the series with GOT (8 days) is on record as 95.5. Besides, in the series with GOT (12 days), the “GOT Levels after administration, 12 days” value is 90.9. In addition, in series [2] (Tocoph 300 mg/kg), the “Blood Lipid Peroxide Levels after administration, 4 days” value (shortened to “Blood Lipid Peroxide Levels … 4 days”) came out at 104.5; the “Blood Lipid Peroxide Levels after administration, 8 days” value (from here on “Blood Lipid Peroxide Levels … 8 days”) is 84.4; the “Blood Lipid Peroxide Levels after administration, 12 days” value (“Blood Lipid Peroxide Levels … 12 days” for short) was found to be 80.9. Besides, in series [2] (pantethine 300 mg/kg), the “Blood Lipid Peroxide Levels … 4 days” value came to 104.5; the “Blood Lipid Peroxide Levels … 8 days” value came out at 84.4; the “Blood Lipid Peroxide Levels … 12 days” value was determined as 80.9.

As for `O=C1O[C@H]([C@@H](O)CO)C(O)=C1O` [AA alone, ascorbic acid], in the series on Blood FFA, the “Blood FFA Levels after administration, 4 days” value came out at 95.9; the “Blood FFA Levels after administration, 8 days” value is given as 96.7; the “Blood FFA Levels after administration, 12 days” value turned out to be 98.9.

As for `CCCC(=O)OC[C@@H](OC(=O)CCC)[C@@H](OC(=O)CCC)[C@H](Cn1c2nc(=O)[nH]c(=O)c-2nc2cc(C)c(C)cc21)OC(=O)CCC` [RFVb alone, riboflavin butyrate], in series [1] (setting [4]), the “Blood Total Cholesterol Levels … 4 days” value was 99.5; the “Blood Total Cholesterol Levels … 8 days” value is listed as 99.0; the “Blood Total Cholesterol Levels … 12 days” value amounted to 97.2.

Take `CCC(C)(C)C(=O)O[C@H]1C[C@@H](C)C=C2C=C[C@H](C)[C@H](CC[C@@H]3C[C@@H](O)CC(=O)O3)[C@H]21` [Simvastatin alone]: in series [1] (setting [6]), the “Blood Total Cholesterol Levels … 4 days” value was found to be 102.9; the “Blood Total Cholesterol Levels … 8 days” value worked out at 95.5; the “Blood Total Cholesterol Levels … 12 days” value worked out at 90.9. The “Blood Triglyceride Levels after administration, 4 days” value in series [3] (4 days) is recorded as 87.1. The “Blood Triglyceride Levels after administration, 8 days” value in series [3] (8 days) was 86.7. In addition, the “Blood Triglyceride Levels after administration, 12 days” value in series [3] (12 days) came to 74.1.

With `CC(=O)Oc1c(C)c(C)c2c(c1C)CC[C@@](C)(CCC[C@H](C)CCC[C@H](C)CCCC(C)C)O2` [Tocoph alone, d-α-tocopherol acetate], in series [1] (setting [5]), the “Blood Total Cholesterol Levels … 4 days” value is reported as 97.7; the “Blood Total Cholesterol Levels … 8 days” value is reported as 95.1; the “Blood Total Cholesterol Levels … 12 days” value is recorded as 97.5. Besides, in series [2] (Tocoph 300 mg/kg), the “Blood Lipid Peroxide Levels … 4 days” value is 106.3; the “Blood Lipid Peroxide Levels … 8 days” value is listed as 119.0; the “Blood Lipid Peroxide Levels … 12 days” value is 75.9.

(Values after patent publication US20040023919A1, “Blood lipid ameliorant composition” (SANKYO COMPANY, LIMITED, priority 2000, published 2004).)
